Key:
[1] = tested on: metathoracic ganglion of the locust; assay: SD-like events evoked by high-potassium (KCl 150 mM) injection into the locust metathoracic ganglion; type: in vivo, Locusta migratoria
Source text: CSD is increasingly accepted as a primary causative agent for migraine, particularly migraine with aura. The cellular mechanisms underlying stroke, seizures and migraine are not exclusive to mammals. Using the locust (Locusta migratoria), a proven model for examining the effects of heat stress on CNS activity, a rapid rise in extracellular potassium ([K^+]o) during anoxia/hypoxia, extreme heat, and ouabain exposure was monitored. This phenomenon has all the characteristics of SD in the neocortex of mammals. Since the physiological mechanisms observed in locust SD-like events are similar to that of mammals, findings in this insect model are predictably transferable to mammals, including humans. In the locust, model SD-like events were triggered in the CNS by injecting small volumes of saline containing high levels of potassium ions (KCl at 150 mM instead of the nominal resting level of 10 mM) into the metathoracic ganglion. Potassium-sensitive microelectrodes were used to measure SD generated by KCl injections, while manipulating the PKG pathway.
This tissue response is characterised by a transient surge and subsequent clearance of potassium ions in the extracellular space ([K^+]o). During SD-like events ventilatory motor activity ceases. This was monitored using an electromyographic electrode positioned on an abdominal muscle used for ventilation (Ventilatory EMG). Upon restoration of the potassium ion gradient the neural activity recovered and preparations began to ventilate again.
The first injection was used as a control. Following the first injection, animals were allowed 10 minutes of perfusion with standard locust saline before treatment with bath applications of selected drugs (i.e. KT5823, T-0156). All drugs were dissolved in a minimum amount of DMSO before further dilution with standard locust saline to a concentration of 10^−5M and were superfused over the metathoracic ganglion for 10 minutes before the second injection. A total of 20 minutes elapsed between the first and second injection in all experiments. As shown in Figure (Bi), duration at half the maximum amplitude was used to characterize the severity of SD-like events. A significant increase was observed following the second injection when compared to the first in control animals. […] Heat shock (HS) preconditioning reduced SD duration evoked by the first and second injections. […] Numbers in the histogram bars indicate number of preparations tested. Asterisks indicate statistically significant differences between the first and second injection ([…]).
Motor pattern activity was not measured for T-0156/Cantharidin treatments. […] Figure (Cii) illustrates the drug effects by showing the percentage difference in rhythm recovery time (second injection relative to first injection).
Single SD events were evoked by injection of saline (50 nL) containing elevated potassium chloride (150 mM vs. 10 mM) directly into the metathoracic ganglion. […] During SD, ventilatory motor activity monitored electromyographically (EMG) ceased and recovered upon restoration of the potassium ion gradient. The duration of the [K^+]o wave at half its maximal amplitude and the time from failure of motor patterning to the recovery of a ventilatory rhythm were measured. […] Numbers in brackets represent sample size.
As in Example 3, SD events were evoked by injection of saline (50 nL) containing elevated potassium chloride (150 mM vs. 10 mM) directly into the metathoracic ganglion of locust preparations.

[2] = tested on: metathoracic ganglion of the locust; assay: Repetitive SD triggered by ouabain in locust; type: in vivo, Locusta migratoria; conditions: for number of repetitive SD-like events in animals that generated SD: ouabain exposure, FIG. 2D; for baseline [K+]o levels during ouabain exposure: pre-treatment, FIG. 2E
Source text: In a second set of experiments, repetitive SD triggered by the ionic disturbance caused by ouabain (a specific inhibitor of the sodium/potassium pump that restores ionic gradients across cell membranes) was examined.
Pretreatment with a bath application of KT5823 prevented repetitive SD in 70% of animals. […] FIG. 2B illustrates a representative example in a single preparation of the eradication of repetitive SD by prior bath application of KT5823. FIG. 2C illustrates that KT5823 reduced the percentage of preparations showing repetitive SD in response to ouabain, while FIG. 2D illustrates that control and KT5823-treated preparations have fewer repetitive SD events.

respiratory brain slices = assay: Neural function in respiratory brain slices during sodium azide-induced anoxia; parameters: species or system mouse or rat; conditions: expected
Source text: Neural function in mammals (mouse or rat) is examined pharmacologically during acute anoxia in respiratory brain slices via sodium azide, which chemically induces anoxia. Following administration of the sodium azide, the time until neural failure is monitored. This is done in the presence of a PDE5 inhibitor, 8-bromo-GMP, KT5823, and Cantharidin.

Row | SMILES | recovery time of ventilatory rhythm, second event versus first ([1]; Example 3, drug applied for 10 minutes prior to second injection, FIG. 3D) | animals in which repetitive SD was generated ([2]; concomitantly treated with 10^-4 M ouabain) [%] | number of repetitive SD-like events in animals that generated SD [2] | baseline [K+]o levels during ouabain exposure [2] | time until neural failure (respiratory brain slices) | length of time to recover ventilatory motor pattern activity after SD ([1]; Example 1, bath application 10^-5 M for 10 minutes before second KCl injection) | animals in which repetitive SD was prevented ([2]; pretreatment by bath application, then ouabain) [%]
1 | Nc1nc2c(nc(Br)n2[C@@H]2O[C@@H]3COP(=O)(O)O[C@H]3[C@H]2O)c(=O)[nH]1 [8-Br-cGMP] | The recovery time was increased | 100 | significantly fewer SD-like events than 8-Br-cGMP-treated animals | did not raise the baseline [K^+]o levels above controls | increased sensitivity to anoxia causing early failure of neural function |  | 
2 | COC(=O)[C@@]1(OC)C[C@H]2O[C@]1(C)n1c3ccccc3c3c4c(c5c6ccccc6n2c5c31)C(=O)N(C)C4 [KT5823, (9S, 10R, 12R)-2,3,9,10,11,12-Hexahydro-10-methoxy-2-9-dimethyl-1-oxo-9,12-epoxy-1H-diindolo-[1,2,3-fg:3′,2′,1′-k1]pyrrolo[3,4-i][1,6]benzodiazocine-10-carboxylic acid methyl ester] |  |  | significantly more SD-like events than KT5823-treated animals | significantly reduces the baseline [K^+]o levels | neuroprotection and prolonged neural function when subject to anoxia | untreated preparations and those treated with T-0156 took significantly longer to recover | 70

From US8026217B2, “Compositions and methods for treating neural anoxia and spreading depression” (Florida Atlantic University, priority 2007, dated 2011)
